According to PubChem BioAssay AID330 (DTP/NCI, 2004):
Values joined by “and” are separate entries in the source; they are usually repeats but may differ in a detail not shown here. Equal entries are not always repeated. Toxic doses and inconclusive results are not listed. Numbered stars: 1 amine (or outer) side, 2 acyl side, 3 side chain; on linkers, the order of the positions; unused ones are H or OH. Bridge positions count the residues as written; N and C are the ends. Square brackets hold non-standard residues; d marks the D form. Peptide text beside a SMILES is read from it. I, II: the chains in the order shown. * marks the point of attachment. ξ: configuration not given here. Quinaldoyl(3-OH,6-OMe) = COc1ccc2nc(C(=O)*)c(O)cc2c1; X12 = CCC(=O)OC1CC=NN([*:1])C1C(=O)[*:2]; X8 = CC(=O)OC1CC=NN([*:1])C1C(=O)[*:2]; ξNMeVal(3-OH) = CNC(C(=O)O)C(C)(C)O; Sar = CNCC(=O)O

Tested on: P388 leukemia ip, CD2F1 mice, survival T/C
Assay: NCI In Vivo Anticancer Drug Screen. Data for tumor model P388 Leukemia (intraperitoneal) in CD2F1 (CDF1) mice
Details: endpoint: median survival time, higher = longer survival
Outline: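 Mice carrying the transplanted tumor received test compound or vehicle. Survival was recorded in each group, and the value is the treated-group measurement divided by that of the vehicle-treated control group.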

[1] = dose: 50.0 mg/kg/injection, schedule: Q01DX009 (ip), vehicle: saline with Tween-80
[2] = dose: 100.0 mg/kg/injection, schedule: Q01DX009 (ip), vehicle: saline with Tween-80
[3] = dose: 100.0 mg/kg/injection, schedule: Q01DX009 (ip), vehicle: saline
[4] = dose: 200.0 mg/kg/injection, schedule: Q01DX009 (ip), vehicle: saline
[5] = dose: 50.0 mg/kg/injection, schedule: Q01DX009 (ip), vehicle: saline
[6] = dose: 50.0 mg/kg/injection, schedule: Q01DX005 (ip), vehicle: Klucel (hydroxypropylcellulose) (HPC)
[7] = dose: 200.0 mg/kg/injection, schedule: Q01DX009 (ip), vehicle: saline with Tween-80
[8] = dose: 50.0 mg/kg/injection, schedule: Q01DX005 (ip), vehicle: saline with Tween-80
[9] = dose: 100.0 mg/kg/injection, schedule: Q01DX005 (ip), vehicle: saline with Tween-80
[10] = dose: 25.0 mg/kg/injection, schedule: Q01DX009 (ip), vehicle: Klucel (hydroxypropylcellulose) (HPC)
[11] = dose: 50.0 mg/kg/injection, schedule: Q01DX009 (ip), vehicle: Klucel (hydroxypropylcellulose) (HPC)
[12] = dose: 100.0 mg/kg/injection, schedule: Q01DX009 (ip), vehicle: Klucel (hydroxypropylcellulose) (HPC)
[13] = dose: 200.0 mg/kg/injection, schedule: Q01DX009 (ip), vehicle: Klucel (hydroxypropylcellulose) (HPC)

CC1(C)C=C(C(Br)c2ccccc2)C(=O)c2ccccc21 (configuration not stated)
T/C (dose: 25.0 mg/kg/injection, schedule: Q01DX009 (ip), vehicle: other): 100 % of control | T/C (dose: 44.0 mg/kg/injection, schedule: Q01DX009 (ip), vehicle: other): 112 % of control | T/C (dose: 50.0 mg/kg/injection, schedule: Q01DX009 (ip), vehicle: other): 118 % of control | T/C (dose: 150.0 mg/kg/injection, schedule: Q01DX009 (ip), vehicle: other): 121 % of control | T/C (dose: 200.0 mg/kg/injection, schedule: Q01DX009 (ip), vehicle: other): 116 % of control

Cc1ccc(NC(=O)Oc2cc(C)c(Cl)c(C)c2Cl)c([N+](=O)[O-])c1
T/C [1]: 114 % of control | T/C [2]: 107 % of control

CCCCNP(=O)(N1CC1)N1CC1
T/C (dose: 0.2 mg/kg/injection, schedule: Q04DX003 (ip), vehicle: saline): 95 % of control | T/C (dose: 0.4 mg/kg/injection, schedule: Q04DX003 (ip), vehicle: saline): 104 % of control | T/C (dose: 0.8 mg/kg/injection, schedule: Q04DX003 (ip), vehicle: saline): 118 % of control | T/C (dose: 6.0 mg/kg/injection, schedule: Q04DX003 (ip), vehicle: saline): 195 % of control | T/C (dose: 6.25 mg/kg/injection, schedule: Q01DX009 (ip), vehicle: saline): 172 % of control | T/C (dose: 6.25 mg/kg/injection, schedule: Q04DX003 (ip), vehicle: saline): 154 % of control | T/C (dose: 12.5 mg/kg/injection, schedule: Q01DX009 (ip), vehicle: saline): 118 % of control | T/C (dose: 12.5 mg/kg/injection, schedule: Q04DX003 (ip), vehicle: saline): 172 % of control | T/C (dose: 25.0 mg/kg/injection, schedule: Q04DX003 (ip), vehicle: saline): 86 % of control

O=C1CSc2ncccc2N1c1ccc([N+](=O)[O-])cn1
T/C (dose: 50.0 mg/kg/injection, schedule: Q01DX009 (ip), vehicle: suspension in saline): 105 % of control | T/C [3]: 100 % of control | T/C (dose: 100.0 mg/kg/injection, schedule: Q01DX009 (ip), vehicle: suspension in saline): 101 % of control | T/C [4]: 96 % of control | T/C (dose: 200.0 mg/kg/injection, schedule: Q01DX009 (ip), vehicle: suspension in saline): 101 % of control

Cc1ncc(C[n+]2csc(CCO)c2C)c(N)n1
T/C [5]: 108 % of control | T/C [3]: 105 % of control | T/C [4]: 97 % of control

CC1(C)OCC(CO)O1 (configuration not stated)
T/C [5]: 106 % of control | T/C [3]: 114 % of control | T/C [4]: 111 % of control

Cc1ccc(S(=O)(=O)NCc2cccc([N+](=O)[O-])c2)cc1
T/C (dose: 60.0 mg/kg/injection, schedule: Q01DX005 (ip), vehicle: Klucel (hydroxypropylcellulose) (HPC)): 94 % of control | T/C (dose: 120.0 mg/kg/injection, schedule: Q01DX005 (ip), vehicle: Klucel (hydroxypropylcellulose) (HPC)): 104 % of control | T/C (dose: 240.0 mg/kg/injection, schedule: Q01DX005 (ip), vehicle: Klucel (hydroxypropylcellulose) (HPC)): 98 % of control

O=C(OCC(Cl)(Cl)Cl)N1[C@@H]2C=C[C@@H](N1C(=O)OCC(Cl)(Cl)Cl)[C@@]13CCCC21O3 (some centres not stated)
T/C [6]: 103 % of control | T/C (dose: 100.0 mg/kg/injection, schedule: Q01DX005 (ip), vehicle: Klucel (hydroxypropylcellulose) (HPC)): 105 % of control | T/C (dose: 200.0 mg/kg/injection, schedule: Q01DX005 (ip), vehicle: Klucel (hydroxypropylcellulose) (HPC)): 103 % of control

Cc1ccc(N=Nc2c(-c3ccccc3)nn(C(=S)S)c2C)cc1
T/C (dose: 25.0 mg/kg/injection, schedule: Q04DX002 (ip), vehicle: Klucel (hydroxypropylcellulose) (HPC)): 97 % of control | T/C (dose: 50.0 mg/kg/injection, schedule: Q04DX002 (ip), vehicle: Klucel (hydroxypropylcellulose) (HPC)): 107 % of control | T/C (dose: 100.0 mg/kg/injection, schedule: Q04DX002 (ip), vehicle: Klucel (hydroxypropylcellulose) (HPC)): 105 % of control | T/C (dose: 200.0 mg/kg/injection, schedule: Q04DX002 (ip), vehicle: Klucel (hydroxypropylcellulose) (HPC)): 96 % of control | T/C (dose: 400.0 mg/kg/injection, schedule: Q04DX002 (ip), vehicle: Klucel (hydroxypropylcellulose) (HPC)): 107 % of control

CCC(=O)OC1CC=NN2C(=O)C(NC(=O)c3nc4ccc(OC)cc4cc3O)COC(=O)C(C(C)(C)O)N(C)C(=O)CN(C)C(=O)CNC(=O)C3C(OC(C)=O)CC=NN3C(=O)C(NC(=O)c3nc4ccc(OC)cc4cc3O)COC(=O)C(C(C)(C)O)N(C)C(=O)CN(C)C(=O)CNC(=O)C12 (configuration not stated) (I: {Quinaldoyl(3-OH,6-OMe)}-S[X12]G[Sar][ξNMeVal(3-OH)] / II: {Quinaldoyl(3-OH,6-OMe)}-S[X8]G[Sar][ξNMeVal(3-OH)]; ester I:1-II:C, I:C-II:1; configuration not given here)
T/C (dose: 20.0 micrograms/kg/injection, schedule: Q01DX005 (ip), vehicle: DMSO): 106 % of control | T/C (dose: 40.0 micrograms/kg/injection, schedule: Q01DX005 (ip), vehicle: DMSO): 153 % of control | T/C (dose: 80.0 micrograms/kg/injection, schedule: Q01DX005 (ip), vehicle: DMSO): 174 % of control | T/C (dose: 160.0 micrograms/kg/injection, schedule: Q01DX005 (ip), vehicle: DMSO): 155 % of control

COc1ccc(/C=N/N(C)C(=O)Nc2cccc(Cl)c2)cc1OC
T/C [1]: 98 % of control | T/C [2]: 98 % of control | T/C [7]: 105 % of control

CCOC(=O)/C(Cl)=N/Nc1ccccc1
T/C [8]: 97 % of control | T/C [9]: 111 % of control

CC(/C=C/c1ccccc1)=Nc1ccc(Cl)cc1
T/C (dose: 25.0 mg/kg/injection, schedule: Q01DX009 (ip), vehicle: saline with Tween-80): 100 % of control and 107 % of control | T/C [1]: 100 % of control and 101 % of control and 107 % of control | T/C [2]: 100 % of control and 101 % of control | T/C [7]: 98 % of control

CC(C)(C)[N]=[V]([Cl])([Cl])[Cl]
T/C (dose: 12.5 mg/kg/injection, schedule: Q01DX005 (ip), vehicle: Klucel (hydroxypropylcellulose) (HPC)): 98 % of control | T/C (dose: 25.0 mg/kg/injection, schedule: Q01DX005 (ip), vehicle: Klucel (hydroxypropylcellulose) (HPC)): 91 % of control | T/C [6]: 98 % of control and 91 % of control

C=CCCc1cc(OC)ccc1C(=O)C(C)C
T/C [10]: 100 % of control | T/C [8]: 99 % of control | T/C [11]: 104 % of control | T/C [9]: 107 % of control | T/C [12]: 102 % of control | T/C (dose: 200.0 mg/kg/injection, schedule: Q01DX005 (ip), vehicle: saline with Tween-80): 100 % of control | T/C [13]: 104 % of control

CCCCCCCCCCCCCCCCCC(=O)NC(Cc1ccc(N(CCCl)CCCl)cc1)C(=O)O (configuration not stated)
T/C (dose: 1.88 mg/kg/injection, schedule: Q01DX009 (ip), vehicle: saline): 159 % of control | T/C (dose: 3.75 mg/kg/injection, schedule: Q01DX009 (ip), vehicle: saline): 172 % of control | T/C (dose: 3.75 mg/kg/injection, schedule: Q03HX008 (ip), vehicle: saline): 155 % of control | T/C (dose: 7.5 mg/kg/injection, schedule: Q01DX009 (ip), vehicle: saline): 236 % of control | T/C (dose: 7.5 mg/kg/injection, schedule: Q03HX008 (ip), vehicle: saline): 190 % of control | T/C (dose: 15.0 mg/kg/injection, schedule: Q01DX009 (ip), vehicle: saline): 277 % of control | T/C (dose: 15.0 mg/kg/injection, schedule: Q03HX008 (ip), vehicle: saline): 225 % of control

O=c1ccn(C2OC(CO)C(O)C2Cl)c(=O)[nH]1 (configuration not stated)
T/C (dose: 6.25 mg/kg/injection, schedule: Q01DX009 (ip), vehicle: Klucel (hydroxypropylcellulose) (HPC)): 101 % of control | T/C (dose: 12.5 mg/kg/injection, schedule: Q01DX009 (ip), vehicle: Klucel (hydroxypropylcellulose) (HPC)): 104 % of control | T/C [10]: 109 % of control | T/C [11]: 105 % of control | T/C [12]: 101 % of control | T/C [13]: 104 % of control

C=C1CCN(c2ccc([N+](=O)[O-])cc2)C1=O
T/C (dose: 4.0 mg/kg/injection, schedule: Q01DX009 (ip), vehicle: saline + alcohol): 94 % of control | T/C (dose: 8.0 mg/kg/injection, schedule: Q01DX009 (ip), vehicle: saline + alcohol): 101 % of control | T/C (dose: 16.0 mg/kg/injection, schedule: Q01DX009 (ip), vehicle: saline + alcohol): 102 % of control | T/C (dose: 32.0 mg/kg/injection, schedule: Q01DX009 (ip), vehicle: saline + alcohol): 96 % of control | T/C (dose: 64.0 mg/kg/injection, schedule: Q01DX009 (ip), vehicle: saline + alcohol): 88 % of control

Nc1nc2nc(-c3ccccc3)nc(N)c2nc1C(=O)N/N=C/c1ccccc1
T/C [2]: 96 % of control | T/C [7]: 95 % of control | T/C (dose: 400.0 mg/kg/injection, schedule: Q01DX009 (ip), vehicle: saline with Tween-80): 100 % of control
